Experimental findings from patent US20250026752A1, “POSITIVE ALLOSTERIC MODULATORS OF THE MUSCARINIC ACETYLCHOLINE RECEPTOR M4” (Vanderbilt University, priority 2021, published 2025) are described below.

Each structure is given as a SMILES string.

This experiment has as its target T1, human mAChR M4 (Homo sapiens, UniProt P08173).
T1 construct: expressed in transfected cells; host or cells: CHO-K1 (ATCC), stably expressing hM4 and Gqi5
T1 sequence (P08173 1-479): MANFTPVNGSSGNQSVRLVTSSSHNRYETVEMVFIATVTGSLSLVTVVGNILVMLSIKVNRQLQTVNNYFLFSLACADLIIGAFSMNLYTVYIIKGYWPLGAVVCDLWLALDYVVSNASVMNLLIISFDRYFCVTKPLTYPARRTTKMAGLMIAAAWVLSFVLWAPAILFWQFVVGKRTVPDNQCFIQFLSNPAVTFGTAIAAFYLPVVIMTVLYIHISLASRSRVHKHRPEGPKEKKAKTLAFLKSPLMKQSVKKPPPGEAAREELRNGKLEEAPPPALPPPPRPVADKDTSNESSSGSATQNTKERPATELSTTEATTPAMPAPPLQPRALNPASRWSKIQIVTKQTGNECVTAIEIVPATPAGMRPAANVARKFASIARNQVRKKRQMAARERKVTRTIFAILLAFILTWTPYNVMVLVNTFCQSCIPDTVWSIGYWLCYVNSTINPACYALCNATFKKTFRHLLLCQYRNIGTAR
Briefly: mAChR M4 cell-based functional assay: calcium flux (Fluo-4, FDSS), positive allosteric modulator activity on the EC20 acetylcholine response, hM4-Gqi5 CHO-K1 cells. To be noted: for Emax at 30 µM: CHO-K1, human M4, % ACh maximum at 30 μM; for EC50: human M4, PAM activity on EC20 acetylcholine response, calcium flux, read-out: Human M4 EC50. Put shortly:
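Potentiation was taken as the concentration-dependent rise in the EC20 acetylcholine calcium response, fitted by a four-parameter logistic with EC20 as baseline. Fluo-4-loaded hM4-Gqi5 CHO-K1 cells received 11-point, threefold-diluted compound before acetylcholine at 144 s; FDSS read at 1 Hz.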

As usually defined, the Emax is the maximal effect, on the per cent scale that the assay sets. The EC50 is the concentration needed to bring the measured effect to its halfway point. For `Cn1nccc1Nc1cnc2c(c1)CN(c1nc(N3CCCC3)nc3ccc(F)cc13)CC2` [Compound 210, 6-(6-fluoro-2-pyrrolidin-1-yl-quinazolin-4-yl)-N-(2-methylpyrazol-3-yl)-7,8-dihydro-5H-1,6-naphthyridin-3-amine], the maximal effect (Emax) at 30 µM turned out to be 81% and the EC50 amounted to 240 nM.

For the molecule `Cc1nc(N2CCc3ncc(Nc4ccnn4C)cc3C2)c2cc(Cl)ccc2n1` [Compound 108, 6-(6-chloro-2-methyl-quinazolin-4-yl)-N-(2-methylpyrazol-3-yl)-7,8-dihydro-5H-1,6-naphthyridin-3-amine], the maximum response (Emax) at 30 µM is 102% and the EC50 worked out at 170 nM.

On to `Cn1nccc1Nc1cnc2c(c1)CN(c1ncnc3ccc(Cl)cc13)CC2` [Compound 106, 6-(6-chloroquinazolin-4-yl)-N-(2-methylpyrazol-3-yl)-7,8-dihydro-5H-1,6-naphthyridin-3-amine], for which the maximal effect (Emax) at 30 µM turned out to be 95% and the EC50 was found to be 130 nM.

With `CC(C)n1nccc1-c1cnc2c(c1)CN(c1ncnc3ccc(F)cc13)CC2` [Compound 264, 6-fluoro-4-(3-(1-isopropyl-1H-pyrazol-5-yl)-7,8-dihydro-1,6-naphthyridin-6(5H)-yl)quinazoline], the Emax at 30 µM was 82% and the EC50 came out at 140 nM.

Turning to `FC(F)(F)c1cnc2c(c1)CN(c1nc(Cl)nc3ccc(C(F)(F)F)cc13)CC2` [Compound 135, 2-chloro-6-(trifluoromethyl)-4-[3-(trifluoromethyl)-7,8-dihydro-5H-1,6-naphthyridin-6-yl]quinazoline], the maximal response (Emax) at 30 µM is 91% and the EC50 stood at 1660 nM.

In the case of `FC(F)(F)c1cnc2c(c1)CN(c1nc(Cl)nc3ccccc13)CC2` [Compound 123, 2-chloro-4-[3-(trifluoromethyl)-7,8-dihydro-5H-1,6-naphthyridin-6-yl]quinazoline], the Emax at 30 µM amounted to 68% and the EC50 worked out at 340 nM.

`Cc1ccc2nc(C)nc(N3CCc4ncc(-c5cnc(F)cc5C)cc4C3)c2c1` [Compound 318, 4-(3-(6-fluoro-4-methylpyridin-3-yl)-7,8-dihydro-1,6-naphthyridin-6(5H)-yl)-2,6-dimethylquinazoline]: the Emax at 30 µM was 92% and the concentration for a half-maximal effect (EC50) was determined as 70 nM.

For `Cc1nn(C)cc1-c1cnc2c(c1)CN(c1nc(C3CC3)nc3ccc(F)cc13)CC2` [Compound 193, 2-cyclopropyl-4-[3-(1,3-dimethylpyrazol-4-yl)-7,8-dihydro-5H-1,6-naphthyridin-6-yl]-6-fluoro-quinazoline], the Emax at 30 µM worked out at 85% and the EC50 came to 950 nM.

As to `Cc1ncc(-c2cnc3c(c2)CN(c2ncnc4ccc(F)cc24)CC3)s1` [Compound 27, 5-[6-(6-fluoroquinazolin-4-yl)-7,8-dihydro-5H-1,6-naphthyridin-3-yl]-2-methyl-thiazole], the Emax at 30 µM was found to be 110% and the EC50 stood at 170 nM.

`C[C@@H]1CN(c2ncnc3ccc(Cl)cc23)Cc2cc(N3CCOCC3)cnc21` [Compound 260, (R)-4-(6-(6-chloroquinazolin-4-yl)-8-methyl-5,6,7,8-tetrahydro-1,6-naphthyridin-3-yl)morpholine]: the Emax at 30 µM stood at 107% and the EC50 amounted to 120 nM.

With `Cc1ccc2ncnc(N3CCc4ncc(-c5cnn(C6CC6)c5)cc4C3)c2c1` [Compound 12, 4-[3-(1-cyclopropylpyrazol-4-yl)-7,8-dihydro-5H-1,6-naphthyridin-6-yl]-6-methyl-quinazoline], the maximal response (Emax) at 30 µM is 114% and the EC50 came to 230 nM.

As to `Cc1ccc(Oc2cnc3c(c2)CN(c2nc(C)nc4ccc(Cl)cc24)CC3)c(F)c1` [Compound 147, 6-chloro-4-[3-(2-fluoro-4-methyl-phenoxy)-7,8-dihydro-5H-1,6-naphthyridin-6-yl]-2-methyl-quinazoline], the Emax at 30 µM was 54% and the EC50 came to 8340 nM.

As for `Cc1nc(N2CCc3ncc(-c4ccc(N(C)C)nc4)cc3C2)c2cc(F)ccc2n1` [Compound 24, 5-[6-(6-fluoro-2-methyl-quinazolin-4-yl)-7,8-dihydro-5H-1,6-naphthyridin-3-yl]-N,N-dimethyl-pyridin-2-amine], the Emax at 30 µM is 92% and the EC50 was 590 nM.

In the case of `Fc1ccc2nc(Cl)nc(N3CCc4ncc(C(F)(F)F)cc4C3)c2c1` [Compound 120, 2-chloro-6-fluoro-4-[3-(trifluoromethyl)-7,8-dihydro-5H-1,6-naphthyridin-6-yl]quinazoline], the Emax at 30 µM came to 91% and the EC50 worked out at 100 nM.

Turning to `COc1nc(N2CCc3ncc(C(F)(F)F)cc3C2)c2cc(C)ccc2n1` [Compound 179, 2-methoxy-6-methyl-4-[3-(trifluoromethyl)-7,8-dihydro-5H-1,6-naphthyridin-6-yl]quinazoline], the maximal effect (Emax) at 30 µM worked out at 98% and the half-maximal effective concentration (EC50) was 340 nM.

With `Cc1nc(N2CCc3ncc(-c4ccc(N(C)C)nc4)cc3C2)c2cc(Cl)ccc2n1` [Compound 49, 5-[6-(6-chloro-2-methyl-quinazolin-4-yl)-7,8-dihydro-5H-1,6-naphthyridin-3-yl]-N,N-dimethyl-pyridin-2-amine], the Emax at 30 µM is 81% and the EC50 turned out to be 1230 nM.

In the case of `Cc1ccc(Oc2cnc3c(c2)CN(c2ncnc4ccc(Cl)cc24)CC3)c(F)c1` [Compound 145, 6-chloro-4-[3-(2-fluoro-4-methyl-phenoxy)-7,8-dihydro-5H-1,6-naphthyridin-6-yl]quinazoline], the Emax at 30 µM was determined as 64% and the EC50 is 4800 nM.

As to `[2H]c1nc(N2CCc3ncc(N4CCOc5ncccc54)cc3C2)c2cc(C)ccc2n1` [Compound 204, 1-[6-(2-deuterio-6-methyl-quinazolin-4-yl)-7,8-dihydro-5H-1,6-naphthyridin-3-yl]-2,3-dihydropyrido[2,3-b][1,4]oxazine], the Emax at 30 µM turned out to be 93% and the EC50 came out at 80 nM.

For the molecule `Cc1nc(N2CCc3ncc(-c4cnn(C5CC5)c4)cc3C2)c2cc(Cl)ccc2n1` [Compound 19, 6-chloro-4-[3-(1-cyclopropylpyrazol-4-yl)-7,8-dihydro-5H-1,6-naphthyridin-6-yl]-2-methyl-quinazoline], the Emax at 30 µM was found to be 80% and the EC50 worked out at 390 nM.

Take `Cc1nn(C)cc1-c1cnc2c(c1)CN(c1nc(Cl)nc3ncccc13)CC2` [Compound 9, 2-chloro-4-[3-(1,3-dimethylpyrazol-4-yl)-7,8-dihydro-5H-1,6-naphthyridin-6-yl]pyrido[2,3-d]pyrimidine]: the Emax at 30 µM was 66% and the EC50 is 2490 nM.

For the molecule `Fc1ccccc1Oc1cnc2c(c1)CN(c1ncnc3ccc(Cl)cc13)CC2` [Compound 232, 6-chloro-4-(3-(2-fluorophenoxy)-7,8-dihydro-1,6-naphthyridin-6(5H)-yl)quinazoline], the maximal effect (Emax) at 30 µM worked out at 77% and the EC50 turned out to be 740 nM.

Take `Cc1nc(N2CCc3ncc(C(F)(F)F)cc3C2)c2ccc(Br)cc2n1` [Compound 128, 7-bromo-2-methyl-4-[3-(trifluoromethyl)-7,8-dihydro-5H-1,6-naphthyridin-6-yl]quinazoline]: the Emax at 30 µM was determined as 32% and the EC50 was 1740 nM.
